Measured values reported in ChEMBL document CHEMBL1150995, “DNA cleavage by photoexcited diazoarenes” (Bioorg Med Chem Lett, 1997).

Key:
[1] = Inhibitory effect of DABCO (0.2 M) on light induced nuclease activity was determined
[2] = Inhibitory effect of D2O on light induced nuclease activity was determined; conditions: concentration not given here
[3] = Inhibitory effect of triphenylphosphine (100 uM) on light induced nuclease activity was determined
[4] = Inhibitory effect of Mannitol (100 mM) on light induced nuclease activity was determined
[5] = Inhibitory effect of DMSO (0.2 M) on light induced nuclease activity was determined
[6] = Inhibitory effect of cumene (100 uM) on light induced nuclease activity was determined
[7] = Inhibitory effect of 2-Propanol (100 uM) on light induced nuclease activity was determined
[8] = Inhibitory effect of SOD (100 ng) on light induced nuclease activity was determined

Row | inhibition [1] | inhibition [2] | inhibition [3] | inhibition [4] | inhibition [5] | inhibition [6] | inhibition [7] | inhibition [8] | SMILES
1 | 38% | 8% | 35% | 3% | 5% | 58% | 30% | 8% | [N-]=[N+]=c1c2ccccc2oc2ccccc12
2 | 30% | 10% | 35% | 5% | 12% | 39% | 25% | 10% | [N-]=[N+]=C1c2ccccc2C(=O)c2ccccc21
